From patent US12384801B2, “Benzothiophene, thienopyridine and thienopyrimidine derivatives for the modulation of sting” (CTXT PTY LTD, priority 2019, dated 2025) come the findings set out here.

One experiment has as its target human STING (WT) (Homo sapiens (Human), UniProt Q86WV6, H232R). The experiment in a line: Differential scanning fluorimetry (DSF), huSTING (WT). The experiment is classed as binding. The conditions noted are these: compound 100 μM, 2 μM protein, Tm with ligand minus Tm of protein alone (1% DMSO). How it is done: (§1) Data were analyzed using “Meltdown analysis” protocol described by Rosa (2015).

The target of the next experiment is WT human STING isoform (Homo sapiens (Human), UniProt Q86WV6, H232R). The experiment in a line: THP-1-Dual KI-hSTING-R232 reporter cell line assay. The experiment is classed as cell-based. Conditions: 24 h incubation, luminescence, normalized to ML RR-S2 CDA 40 μM; read-out: EC50 THP-1 Dual KI-hSTING-R232 cells. How it is done: (§2) THP-1 STING Lucia ISG cells (InvivoGen #thpl-isg) were cultured in RPMI-1640 containing 2 mM L-glutamine, 25 mM HEPES, 100 μg/mL Normocin (InvivoGen) and 10% heat-inactivated FBS. Cells were seeded at a density of 7×10^5 cells/mL, maintained at 37° C./5% CO2, and passaged every 3-4 days. Selection pressure was maintained by the addition of 100 μg/mL Zeocin every second passage.
WT human STING isoform, sequence (Q86WV6 whole entry H232R, canonical isoform): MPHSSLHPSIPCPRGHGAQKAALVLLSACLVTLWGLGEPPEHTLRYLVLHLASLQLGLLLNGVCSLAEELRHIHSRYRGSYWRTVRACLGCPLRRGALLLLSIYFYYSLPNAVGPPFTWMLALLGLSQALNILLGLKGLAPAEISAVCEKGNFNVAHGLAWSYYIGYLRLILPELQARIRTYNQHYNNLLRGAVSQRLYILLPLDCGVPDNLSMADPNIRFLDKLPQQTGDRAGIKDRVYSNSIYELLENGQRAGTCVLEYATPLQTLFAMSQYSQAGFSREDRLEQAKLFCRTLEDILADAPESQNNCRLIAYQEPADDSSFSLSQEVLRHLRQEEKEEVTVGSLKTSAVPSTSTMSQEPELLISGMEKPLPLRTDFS
(§3) Assay conditions: cells were harvested and resuspended at a concentration of 5×10^5 cells/mL in fresh growth media. Of this cell preparation 20 μL per well was dispensed into 384 well cell culture plates (Greiner, #781098X) and incubated at 37° C./5% CO2 for 2 hours.
(§4) Concentration Response Curves (commonly 11 doses) were prepared by 2.5 fold serial dilution starting from 10 mM compound stock solution in DMSO. Compound dilutions were transferred into the cell culture plates using a pintool (0.1 μL transfer), control wells were matched for DMSO. Positive control wells received ML RR-S2 CDA (Med Chem Express HY12885B) in 5 μL of media to a final concentration of 40 μM. All other wells received additional 5 μL of media only to equalize volume. The plates were incubated for 24 h at 37° C./5% CO2.
(§5) For the detection step, QUANTI-Luc (InvivoGen #rep-qlc1) was prepared according to manufacturer's instruction and 10 μL were added per well to the culture plates. Plates were shaken for ten seconds on an orbital shaker and left in the dark at room temperature for two minutes, before luminescence was read on a Perkin Elmer Envision plate reader.
(§6) Data analysis: Luminescence raw data was normalized % activity relative to the signal of the positive control wells and negative control wells which were not treated with compound. The following formula was used to calculate normalized % activity from raw signals: % activity=(sample−negative)/(positive−negative)
(§7) The THP-1 STING Lucia ISG cell EC50 provides an assessment of activity at the human HAQ isoform of STING. For assessing compound activity against the WT human STING isoform, an equivalent method was conducted where the cells used were THP-1-Dual KI-hSTING-R232 (InvivoGen #thpd-r232).

Experiment [1] deals with human HAQ isoform of STING (Homo sapiens (Human), UniProt Q86WV6, G230A/H232R/R293Q/R71H). The experiment in a line: THP-1 STING Lucia ISG reporter cell line assay. The format is cell-based. Conditions: 24 h incubation, luminescence, normalized to ML RR-S2 CDA 40 μM; read-out: EC50 THP-I STING Lucia ISG cells. How it is done: as §2, §3, §4, §5, §6, §7
human HAQ isoform of STING, sequence (Q86WV6 whole entry R71H/G230A/H232R/R293Q, canonical isoform): as the sequence (Q86WV6 whole entry H232R, canonical isoform) above, with R71H, G230A, R293Q counted along it
The next experiment has as its target human STING (HAQ) (Homo sapiens (Human), UniProt Q86WV6, G230A/H232R/R293Q). The experiment in a line: Differential scanning fluorimetry (DSF), huSTING (HAQ). The experiment is classed as binding. The conditions noted are these: compound 100 μM, 2 μM protein, Tm with ligand minus Tm of protein alone (1% DMSO). How it is done:
as §1
On the technique in general: In DSF a fluorescence change marks the thermal transition of the protein.

SMILES strings stand for the structures. Some results are limits rather than exact numbers.

human STING (HAQ), sequence (Q86WV6 149-345 G230A/H232R/R293Q): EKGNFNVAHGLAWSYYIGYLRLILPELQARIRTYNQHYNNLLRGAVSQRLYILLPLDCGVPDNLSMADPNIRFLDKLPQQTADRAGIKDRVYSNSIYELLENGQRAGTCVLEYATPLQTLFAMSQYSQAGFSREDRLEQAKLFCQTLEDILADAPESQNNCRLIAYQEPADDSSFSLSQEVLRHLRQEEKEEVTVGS
human STING (WT), sequence (Q86WV6 149-345 H232R): as the sequence (Q86WV6 149-345 G230A/H232R/R293Q) above, with A82G, Q145R counted along it

Regarding `NC(=O)c1ccc2c(c1)nc(-c1c(C(=O)O)sc3cccc(Cl)c13)n2CCn1c(-c2c(C(=O)O)sc3cccc(Cl)c23)nc2cc(C(N)=O)ccc21` (single isomer, unassigned) [Example 1.2, 3,3′-(Ethane-1,2-diylbis(5-carbamoyl-1H-benzo[d]imidazole-1,2-diyl))bis(4-chlorobenzo[b]thiophene-2-carboxylic acid)], the “DSF huSTING (WT) ΔTm” value at human STING (WT) is −7.14 °C. The EC50 at WT human STING isoform amounted to 6.33 µM; in experiment [1] it was 14.2 µM. Also, the “DSF huSTING (HAQ) ΔTm” value on human STING (HAQ) was 0.13 °C.

On to `NC(=O)c1ccc2c(c1)nc(-c1c(C(=O)O)sc3cccc(C(F)(F)F)c13)n2CCn1c(-c2c(C(=O)O)sc3cccc(C(F)(F)F)c23)nc2cc(C(N)=O)ccc21` (single isomer, unassigned) [Example 19.1, 3,3′-(Ethane-1,2-diylbis(5-carbamoyl-1H-benzo[d]imidazole-1,2-diyl))bis(4-(trifluoromethyl)benzo[b]thiophene-2-carboxylic acid)], for which, at human STING (WT), the “DSF huSTING (WT) ΔTm” value was found to be 9.38 °C. In addition, the EC50 on WT human STING isoform was determined as 0.196 µM; in experiment [1] it was 0.189 µM. Further, the ΔTm at 100 µM at human STING (HAQ) turned out to be 21.4 °C.

As for `NC(=O)c1ccc2c(c1)nc(-c1c(C(=O)O)sc3cccc(C(F)(F)F)c13)n2CCn1c(-c2c(C(=O)O)sc3cccc(C(F)(F)F)c23)nc2cc(C(N)=O)ccc21` (single isomer, unassigned) [Example 19.2, 3,3′-(Ethane-1,2-diylbis(5-carbamoyl-1H-benzo[d]imidazole-1,2-diyl))bis(4-(trifluoromethyl)benzo[b]thiophene-2-carboxylic acid)], the “DSF huSTING (WT) ΔTm” value on human STING (WT) is 2.74 °C. The half-maximal effective concentration (EC50) on WT human STING isoform was determined as 3.66 µM; in experiment [1] it was 2.6 µM. In addition, the “DSF huSTING (HAQ) ΔTm” value on human STING (HAQ) turned out to be 12.26 °C.

Turning to `NC(=O)c1ccc2c(c1)nc(-c1c(C(=O)O)sc3c(F)ccc(Br)c13)n2CCn1c(-c2c(C(=O)O)sc3c(F)ccc(Br)c23)nc2cc(C(N)=O)ccc21` (single isomer, unassigned) [Example 20.2, 3,3′-(Ethane-1,2-diylbis(5-carbamoyl-1H-benzo[d]imidazole-1,2-diyl))bis(4-bromo-7-fluorobenzo[b]thiophene-2-carboxylic acid)], the “DSF huSTING (WT) ΔTm” value at human STING (WT) was −4.12 °C. Moreover, the EC50 at WT human STING isoform came out at 5.81 µM; in experiment [1], 14.7 µM. The “DSF huSTING (HAQ) ΔTm” value on human STING (HAQ) turned out to be 0.44 °C.

Take `COc1c(C(N)=O)ccc2c1nc(-c1c(C(=O)O)sc3cccc(Cl)c13)n2CCn1c(-c2c(C(=O)O)sc3cccc(Cl)c23)nc2c(OC)c(C(N)=O)ccc21` (single isomer, unassigned) [Example 22.1, 3,3′-(Ethane-1,2-diylbis(5-carbamoyl-4-methoxy-1H-benzo[d]imidazole-1,2-diyl))bis(4-chlorobenzo[b]thiophene-2-carboxylic acid)]: the results for the shift in melting temperature (ΔTm) at 100 µM at human STING (WT) and at human STING (HAQ) were 37.7 °C and 45.5 °C, respectively. Also, the EC50 on WT human STING isoform was found to be 0.13 µM; in experiment [1], 0.256 µM.

With `COc1c(C(N)=O)ccc2c1nc(-c1c(C(=O)O)sc3cccc(Cl)c13)n2CCn1c(-c2c(C(=O)O)sc3cccc(Cl)c23)nc2c(OC)c(C(N)=O)ccc21` (single isomer, unassigned) [Example 22.2, 3,3′-(Ethane-1,2-diylbis(5-carbamoyl-4-methoxy-1H-benzo[d]imidazole-1,2-diyl))bis(4-chlorobenzo[b]thiophene-2-carboxylic acid)], the “DSF huSTING (WT) ΔTm” value at human STING (WT) turned out to be 35.685 °C. Further, the EC50 worked out at 0.498 µM at WT human STING isoform and 1.01 µM in experiment [1]. In addition, on human STING (HAQ), the “DSF huSTING (HAQ) ΔTm” value was found to be 45.31 °C.

Take `CCOC(=O)c1sc2ccnc(OC)c2c1-c1nc2cc(C(N)=O)ccc2n1CCn1c(-c2c(C(=O)OCC)sc3ccnc(OC)c23)nc2cc(C(N)=O)ccc21` [Example 6, Diethyl 3,3′-(ethane-1,2-diylbis(5-carbamoyl-1H-benzo[d]imidazole-1,2-diyl))bis(4-methoxythieno[3,2-c]pyridine-2-carboxylate)]: the half-maximal effective concentration (EC50) (on WT human STING isoform; in experiment [1]) was over 40 µM in each case.

Regarding `CCOC(=O)c1sc2ccccc2c1-c1nc2cc(C(N)=O)ccc2n1CCn1c(-c2c(C(=O)OCC)sc3ccccc23)nc2cc(C(N)=O)ccc21` [Example 8, Diethyl 3,3′-(ethane-1,2-diylbis(5-carbamoyl-1H-benzo[d]imidazole-1,2-diyl))bis(benzo[b]thiophene-2-carboxylate)], the EC50 (at WT human STING isoform; in experiment [1]) was over 40 µM throughout.

For `CCOC(=O)c1sc2cccc(Br)c2c1-c1nc2cc(C(N)=O)ccc2n1CCn1c(-c2c(C(=O)OCC)sc3cccc(Br)c23)nc2cc(C(N)=O)ccc21` [Example 10, Diethyl 3,3′-(ethane-1,2-diylbis(5-carbamoyl-1H-benzo[d]imidazole-1,2-diyl))bis(4-bromobenzo[b]thiophene-2-carboxylate)], the EC50 is 12.7 µM on WT human STING isoform and 19.9 µM in experiment [1].

Take `CCOC(=O)c1sc2c(F)ccc(OC)c2c1-c1nc2cc(C(N)=O)ccc2n1CCn1c(-c2c(C(=O)OCC)sc3c(F)ccc(OC)c23)nc2cc(C(N)=O)ccc21` [Example 12, Diethyl 3,3′-(ethane-1,2-diylbis(5-carbamoyl-1H-benzo[d]imidazole-1,2-diyl))bis(7-fluoro-4-methoxybenzo[b]thiophene-2-carboxylate)]: the values for the EC50 (at WT human STING isoform; in experiment [1]) were 9.18 µM and 5.08 µM, respectively.

Consider `CCOC(=O)c1sc2cccc(C)c2c1-c1nc2cc(C(N)=O)ccc2n1CCn1c(-c2c(C(=O)OCC)sc3cccc(C)c23)nc2cc(C(N)=O)ccc21` [Example 14, Diethyl 3,3′-(1,1′-(ethane-1,2-diyl)bis(5-carbamoyl-1H-benzo[d]imidazole-2,1-diyl))bis(4-methylbenzo[b]thiophene-2-carboxylate)], for which the EC50 (on WT human STING isoform; in experiment [1]) was over 40 µM each time.

For `CCOC(=O)c1sc2cccc(C#N)c2c1-c1nc2cc(C(N)=O)ccc2n1CCn1c(-c2c(C(=O)OCC)sc3cccc(C#N)c23)nc2cc(C(N)=O)ccc21` [Example 16, Diethyl 3,3′-(ethane-1,2-diylbis(5-carbamoyl-1H-benzo[d]imidazole-1,2-diyl))bis(4-cyanobenzo[b]thiophene-2-carboxylate)], the EC50 (at WT human STING isoform; in experiment [1]) was over 40 µM throughout.

In the case of `CCOC(=O)c1sc2cccc(C(F)(F)F)c2c1-c1nc2cc(C(N)=O)ccc2n1CCn1c(-c2c(C(=O)OCC)sc3cccc(C(F)(F)F)c23)nc2cc(C(N)=O)ccc21` [Example 18, Diethyl 3,3′-(ethane-1,2-diylbis(5-carbamoyl-1H-benzo[d]imidazole-1,2-diyl))bis(4-(trifluoromethyl)benzo[b]thiophene-2-carboxylate)], the results for the EC50 (at WT human STING isoform; in experiment [1]) were over 40 µM and 3.74 µM, respectively.

In the case of `CCOC(=O)c1sc2cccc(Cl)c2c1-c1nc2c(OC)c(C(N)=O)ccc2n1CCn1c(-c2c(C(=O)OCC)sc3cccc(Cl)c23)nc2c(OC)c(C(N)=O)ccc21` [Example 21, Diethyl 3,3′-(ethane-1,2-diylbis(5-carbamoyl-4-methoxy-1H-benzo[d]imidazole-1,2-diyl))bis(4-chlorobenzo[b]thiophene-2-carboxylate)], the ΔTm at 100 µM at human STING (WT) is 3.41 °C; on human STING (HAQ), 4.33 °C. The EC50 on WT human STING isoform was determined as 0.007 µM; in experiment [1] it was 0.019 µM.

`CCOC(=O)c1sc2cccc(OCC)c2c1-c1nc2cc(C(N)=O)ccc2n1CCn1c(-c2c(C(=O)OCC)sc3cccc(OCC)c23)nc2cc(C(N)=O)ccc21` [Example 23, Diethyl 3,3′-(ethane-1,2-diylbis(5-carbamoyl-1H-benzo[d]imidazole-1,2-diyl))bis(4-ethoxybenzo[b]thiophene-2-carboxylate)]: the EC50 (at WT human STING isoform; in experiment [1]) was over 40 µM in each case.

For `CCOC(=O)c1sc2c(F)ccc(Cl)c2c1-c1nc2cc(C(N)=O)ccc2n1CCn1c(-c2c(C(=O)OCC)sc3c(F)ccc(Cl)c23)nc2cc(C(N)=O)ccc21` [Example A2, Diethyl 3,3′-(ethane-1,2-diylbis(5-carbamoyl-1H-benzo[d]imidazole-1,2-diyl))bis(4-chloro-7-fluorobenzo[b]thiophene-2-carboxylate)], the EC50 at WT human STING isoform is 3.17 µM; in experiment [1], 9.53 µM.

The term EC50 denotes the concentration that produces a half-maximal response. Usually ΔTm stands for the change in melting temperature against a reference sample.
